Source: ChEMBL document CHEMBL1201862, “PubChem BioAssay data set” (2004)
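Each compound was tested at five concentrations against cells in 96-well plates for 48 hours. GI50 marks 50% less growth.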 Calls of active or inactive are those of the source. Cut-off read from the data, not from the text of the source: active = GI50 up to about 1.1 µM and inactive = higher.

Legend:
Assay in all cases: inhibition of tumour cell growth, NCI panel, 48 h
MOLT-4 = test system: MOLT-4
CAKI-1 = test system: CAKI-1
HCC 2998 = test system: HCC 2998
SK-MEL-2 = test system: SK-MEL-2
HL-60 = test system: HL-60
ACHN = test system: ACHN
SK-OV-3 = test system: SK-OV-3
LXFL 529 = test system: LXFL 529
TK-10 = test system: TK-10
786-0 = test system: 786-0
OVCAR-3 = test system: OVCAR-3
SF-268 = test system: SF-268
COLO 205 = test system: COLO 205
SNB-78 = test system: SNB-78
SF-539 = test system: SF-539
NCI-H23 = test system: NCI-H23
A549 = test system: A549
HOP-92 = test system: HOP-92
XF498 = test system: XF498
SK-MEL-28 = test system: SK-MEL-28
A498 = test system: A498
KM12 = test system: KM12
SF-295 = test system: SF-295
HCT-116 = test system: HCT-116
SNB-19 = test system: SNB-19
M19-MEL = test system: M19-MEL
CCRF-CEM = test system: CCRF-CEM
DMS-273 = test system: DMS-273
UACC-257 = test system: UACC-257
RXF 631 = test system: RXF 631
IGROV-1 = test system: IGROV-1
HCT-15 = test system: HCT-15
SNB-75 = test system: SNB-75
UACC-62 = test system: UACC-62
HT-29 = test system: HT-29
LOX IMVI = test system: LOX IMVI
U-251 = test system: U-251
SW-620 = test system: SW-620
SN12C = test system: SN12C
NCI-H522 = test system: NCI-H522
UO-31 = test system: UO-31
DLD-1 = test system: DLD-1
OVCAR-8 = test system: OVCAR-8
HOP-62 = test system: HOP-62
Malme-3M = test system: Malme-3M
DMS-114 = test system: DMS-114
M14 = test system: M14
K562 = test system: K562
OVCAR-5 = test system: OVCAR-5
NCI-H460 = test system: NCI-H460
SR = test system: SR
KM-20L2 = test system: KM-20L2
HOP-18 = test system: HOP-18
NCI-H226 = test system: NCI-H226
OVCAR-4 = test system: OVCAR-4
EKVX = test system: EKVX
RPMI-8226 = test system: RPMI-8226
SK-MEL-5 = test system: SK-MEL-5

Measured: GI50

CCOC(=O)CNC(=O)OCc1ccccc1
inactive: MOLT-4 > 100 µM | CAKI-1 > 100 µM | HCC 2998 > 100 µM | SK-MEL-2 > 100 µM | HL-60 > 100 µM | ACHN > 100 µM | SK-OV-3 > 100 µM | LXFL 529 > 100 µM | TK-10 > 100 µM | 786-0 > 100 µM | OVCAR-3 > 100 µM | SF-268 > 100 µM | COLO 205 > 100 µM | SNB-78 > 100 µM | SF-539 > 100 µM | NCI-H23 > 100 µM | A549 > 100 µM | HOP-92 > 100 µM | XF498 > 100 µM | SK-MEL-28 > 100 µM | A498 > 100 µM | KM12 > 100 µM | SF-295 > 100 µM | HCT-116 > 100 µM | SNB-19 > 100 µM | M19-MEL > 100 µM | CCRF-CEM > 100 µM | DMS-273 > 100 µM | UACC-257 > 100 µM | RXF 631 > 100 µM | IGROV-1 > 100 µM | SNB-75 > 100 µM | UACC-62 > 100 µM | HT-29 > 100 µM | LOX IMVI > 100 µM | U-251 > 100 µM | SW-620 > 100 µM | SN12C > 100 µM | NCI-H522 > 100 µM | UO-31 > 100 µM | DLD-1 > 100 µM | OVCAR-8 > 100 µM | HOP-62 > 100 µM | Malme-3M > 100 µM | DMS-114 > 100 µM | M14 > 100 µM | K562 > 100 µM | OVCAR-5 > 100 µM | NCI-H460 > 100 µM
> 100 µM: HCT-15

Cc1ccc(NP(=O)(Oc2ccccc2)N(CCCl)CCCl)cc1 (configuration not stated)
45.2 µM: HCT-15
inactive: MOLT-4 9.04 µM | CAKI-1 > 100 µM | HCC 2998 3.56 µM | SK-MEL-2 41.6 µM | HL-60 44 µM | ACHN 34.6 µM | SK-OV-3 > 100 µM | LXFL 529 99.3 µM | SR 95.5 µM | KM-20L2 76.7 µM | TK-10 > 100 µM | HOP-18 > 100 µM | NCI-H226 39.6 µM | OVCAR-3 54.6 µM | SF-268 80.5 µM | COLO 205 31.6 µM | SNB-78 > 100 µM | SF-539 > 100 µM | NCI-H23 61.5 µM | A549 48.2 µM | HOP-92 96.4 µM | OVCAR-4 51.3 µM | SK-MEL-28 > 100 µM | A498 58.7 µM | EKVX > 100 µM | KM12 91 µM | SF-295 67 µM | HCT-116 21.2 µM | M19-MEL 28.7 µM | DMS-273 > 100 µM | UACC-257 28.6 µM | RXF 631 10 µM | IGROV-1 90.8 µM | SNB-75 > 100 µM | UACC-62 > 100 µM | HT-29 26.1 µM | U-251 > 100 µM | SW-620 > 100 µM | SN12C 91 µM | NCI-H522 > 100 µM | RPMI-8226 5.5 µM | UO-31 76.4 µM | SK-MEL-5 74.5 µM | DLD-1 23.9 µM | OVCAR-8 99.1 µM | HOP-62 > 100 µM | Malme-3M 92.7 µM | DMS-114 34.4 µM | M14 > 100 µM | K562 > 100 µM | OVCAR-5 39.3 µM

O=C(Nc1cccc(Cl)c1)C(=O)C(C(=O)c1ccc2ccccc2c1)C1OC(=O)c2ccccc21 (configuration not stated)
inactive: MOLT-4 3.99 µM | CAKI-1 18.5 µM | HCC 2998 10.2 µM | SK-MEL-2 14.6 µM | HL-60 9.16 µM | ACHN 25.4 µM | SK-OV-3 24.6 µM | LXFL 529 7.48 µM | KM-20L2 33.7 µM | TK-10 29 µM | HOP-18 12.1 µM | NCI-H226 2.86 µM | 786-0 10.6 µM | OVCAR-3 14.7 µM | SF-268 7.29 µM | COLO 205 17.1 µM | SNB-78 5.9 µM | SF-539 7.8 µM | NCI-H23 7.94 µM | A549 30 µM | HOP-92 20.6 µM | OVCAR-4 8.41 µM | SK-MEL-28 9.62 µM | A498 6.01 µM | EKVX 32.7 µM | KM12 22.6 µM | HCT-116 12.6 µM | SNB-19 5.3 µM | M19-MEL 13.8 µM | CCRF-CEM 11.2 µM | DMS-273 24.7 µM | UACC-257 17 µM | RXF 631 16.9 µM | IGROV-1 22.4 µM | SNB-75 5.31 µM | UACC-62 15.3 µM | HT-29 31.9 µM | LOX IMVI 17.3 µM | U-251 5.4 µM | SW-620 18.9 µM | SN12C 18.6 µM | NCI-H522 > 10 µM | RPMI-8226 7.67 µM | UO-31 14.1 µM | SK-MEL-5 14.7 µM | DLD-1 16.3 µM | OVCAR-8 13.9 µM | HOP-62 16.8 µM | Malme-3M 13.1 µM | DMS-114 11.5 µM | M14 16 µM | K562 16.1 µM | OVCAR-5 24.8 µM | NCI-H460 8.75 µM
> 10 µM: HCT-15
